Assay results published in patent US20080214568A1, “Pharmaceutical Combination Comprising an Antifungal Agent and an Active Substance Selected From Carveol, Eugenol, Thymol, Borneol, Carvacrol, and Alpha- and Beta-Ionones” (ADVANCED SCIENTIFIC DEVELOPMENTS, priority 2005, published 2008).
Read-outs that look alike come from different tables or passages of the source.

Legend:
Candida albicans = assay: Static tests: minimal inhibitory (MIC) and minimal fungicidal concentration (MFC) on Candida albicans strains; assay type: cell-based
Procedure: In Vitro Tests: Determination of Minimal Fungicidal Concentration (MFC) on Different Strains of Candida albicans
The experiment was carried out with several strains of Candida albicans having different susceptibilities isolated in the hospital environment from the mouth, vagina and digestive tract. […] An antifungal pharmaceutical composition was prepared by mixing fluconazole at different concentrations with carvacrol at a sub-inhibitory concentration of 0.3 g per liter of solution or excipient. This pharmaceutical composition according to the invention was named FLUC-P for potentiated fluconazole. In each case, antifungal activity was determined either with fluconazole alone, or with carvacrol alone, or with the composition of the invention.
Table 1 gives the results of static tests to determine the minimal fungicidal concentration (MFC) in μg/ml.
(§1) The experiment was carried out with several strains of Candida albicans having different susceptibilities isolated in the hospital environment. The antifungal agent used was voriconazole, an azole derivative and one of the most recent antifungals on the market. An antifungal pharmaceutical composition according to the invention was prepared by mixing voriconazole at different concentrations with carvacrol at a sub-inhibitory concentration of 0.3 g per liter of solution or excipient. This pharmaceutical composition according to the invention was named Vorico-P for potentiated voriconazole. In each case, antifungal activity was determined either with voriconazole alone, or with carvacrol alone, or with the composition of the invention.
Table 2 gives the results of static tests to determine the minimal inhibitory concentration (MIC) and the minimal fungicidal concentration (MFC) in μg/ml.
as §1, with “caspofungin, from the echinocandin family, which is” for “voriconazole, an azole derivative and”, “newest” for “most recent”, “caspofungin” for “voriconazole”, “Caspo-P” for “Vorico-P”, “caspofungin.” for “voriconazole.”
Table 3 gives the results of static tests to determine the minimal inhibitory concentration (MIC) and the minimal fungicidal concentration (MFC) in μg/ml.
The experiment was carried out with several strains of Candida albicans having different susceptibilities isolated in the hospital environment. The antifungal agent used was 5-fluorocytosine, from the pyrimidine group, which is one of the oldest antifungal agents. An antifungal pharmaceutical composition according to the invention was prepared by mixing 5-fluorocytosine at different concentrations with eugenol at a sub-inhibitory concentration of 0.5 g per liter of solution or excipient. This pharmaceutical composition according to the invention was named Fluoro-P for potentiated 5-fluorocytosine. In each case, antifungal activity was determined either with 5-fluorocytosine alone, or with eugenol alone, or with the composition of the invention.
Table 4 gives the results of static tests to determine the minimal inhibitory concentration (MIC) and the minimal fungicidal concentration (MFC) in μg/ml.

[1] = tested on: Candida albicans strain with moderate resistance to fluconazole; assay type: in vivo, mice; conditions: fluconazole alone 4 mg/kg/day, carvacrol alone 30 mg/kg/day; for survival: mice, gavage from 24 h post-infection, seven days, composition fluconazole 2 mg/kg + carvacrol 30 mg/kg, FIG. 2; for Candida albicans loads in kidney, lung and bone marrow: organs of mice which died during the experiment
Source text: FIG. 2 presents the results of in vivo tests in a systemic candidiasis model in experimentally infected mice either untreated, or treated with fluconazole alone, treated with carvacrol alone, or treated with a pharmaceutical composition according to the invention comprising fluconazole and carvacrol.
Groups of 15 mice were experimentally infected by intravenous injection of 10,000,000 cells (colony-forming units) of a Candida albicans strain with moderate resistance to fluconazole.
The first group was composed of control mice which were infected and untreated.
The second group was composed of infected mice treated by gavage, 24 h post-infection, with fluconazole alone at a dose of 4 mg/kg of body weight/day.
The third group was composed of infected mice treated by gavage, 24 h post-infection, with carvacrol alone at a dose of 30 mg/kg of body weight/day.
The fourth group was composed of infected mice treated by gavage, 24 h post-infection, with fluconazole 2 mg/kg of body weight and with carvacrol 30 mg/kg of body weight.
The duration of treatment was seven days for surviving animals. The survival rate was measured over time. […] All the other mice died between the second and seventh day post-infection.

Aspergillus niger = assay: Static tests: MIC and MFC on Aspergillus niger strains; assay type: cell-based
Procedure: The experiment was carried out with several strains of Aspergillus niger which were not susceptible to fluconazole. The antifungal agent used was fluconazole, an azole derivative and one of the most widely used antifungals. […] Aspergillosis, caused by microorganisms from the family Aspergillus sp, represents the most common and most difficult-to-treat infection. An antifungal pharmaceutical composition according to the invention was prepared by mixing fluconazole at different concentrations with carvacrol at a sub-inhibitory concentration of 0.25 g per liter of solution or excipient. This pharmaceutical composition according to the invention was named Fluc-P for potentiated fluconazole. In each case, antifungal activity was determined either with fluconazole alone, or with carvacrol alone, or with the composition of the invention.
Table 5 gives the results of static tests to determine the minimal inhibitory concentration (MIC) and the minimal fungicidal concentration (MFC) in μg/ml.

Question: With `CC[C@H](C)C[C@H](C)CCCCCCCCC(=O)N[C@H]1C[C@@H](O)[C@@H](NCCN)NC(=O)[C@@H]2[C@@H](O)CCN2C(=O)[C@H]([C@H](O)CCN)NC(=O)[C@H]([C@H](O)[C@@H](O)c2ccc(O)cc2)NC(=O)[C@@H]2C[C@@H](O)CN2C(=O)[C@H]([C@@H](C)O)NC1=O` [Caspofungin, caspofungin] as the molecule, how does the MIC (Candida albicans; Candida albicans, Example 3, resistant strain, caspofungin alone) read?
Answer: 3 µg/mL

Question: And the MIC (Candida albicans; Candida albicans, Example 3, susceptible strain, caspofungin alone)?
Answer: < 0.05 µg/mL

Question: What about the “caspofungin concentration producing fungicidal activity versus fungistatic concentration of caspofungin alone” value (Candida albicans; with carvacrol 0.3 mg/ml) of the same molecule?
Answer: at least six times lower

Question: `C[C@@H](c1ncncc1F)[C@](O)(Cn1cncn1)c1ccc(F)cc1F` [Voriconazole, voriconazole] was tested. Which MIC (Candida albicans; Candida albicans, Example 2, resistant strain, voriconazole alone) did it give?
Answer: 10 µg/mL

Question: What about the MIC (Candida albicans; Candida albicans, Example 2, susceptible strain, voriconazole alone) of the same molecule?
Answer: < 0.05 µg/mL

Question: And the “voriconazole concentration producing fungicidal activity versus fungistatic concentration of voriconazole alone” value (Candida albicans; resistant strains, with carvacrol 0.3 mg/ml)?
Answer: at least ten times lower

Question: Which results are given for `Nc1nc(=O)[nH]cc1F` [5-fluorocytosine]?
Answer: MIC (Candida albicans; Candida albicans, Example 4, resistant strain, 5-fluorocytosine alone): 25 µg/mL; MIC (Candida albicans; Candida albicans, Example 4, susceptible strain, 5-fluorocytosine alone): 2.5 µg/mL; 5-fluorocytosine concentration producing fungicidal activity versus fungistatic concentration of 5-fluorocytosine alone (Candida albicans; resistant strains, with eugenol 0.5 mg/ml): five times lower

Question: With `C=CCc1ccc(O)c(OC)c1` [Eugenol, eugenol] as the molecule, how does the MFC (Candida albicans; Candida albicans, Example 4, resistant strain, eugenol alone, read-out: MFC) read?
Answer: 2000 µg/mL

Question: And the MFC (Candida albicans; Candida albicans, Example 4, susceptible strain, eugenol alone, read-out: MFC)?
Answer: 2000 µg/mL

Question: For `OC(Cn1cncn1)(Cn1cncn1)c1ccc(F)cc1F` [Fluconazole, fluconazole], which survival [1] is on record?
Answer: died during the experiment

Question: What about the “Candida albicans loads in kidney, lung and bone marrow” value [1] of the same molecule?
Answer: high loads

Question: And the MFC (Candida albicans; Candida albicans, Example 1, highly resistant strain, exponential growth phase, substance alone, read-out: MFC)?
Answer: > 300 µg/mL

Question: And the MFC (Candida albicans; Candida albicans, Example 1, moderately resistant strain, exponential growth phase, substance alone, read-out: MFC)?
Answer: 150 µg/mL

Question: What about the MFC (Candida albicans; Candida albicans, Example 1, susceptible strain, exponential growth phase, substance alone, read-out: MFC) of the same molecule?
Answer: 0.5 µg/mL

Question: What about the MIC (Aspergillus niger; Example 5, 12 different strains of Aspergillus niger, fluconazole alone) of the same molecule?
Answer: > 1000 µg/mL

Question: Which survival [1] does the source give for `Cc1ccc(C(C)C)cc1O` [Carvacrol, carvacrol] here?
Answer: died during the experiment

Question: And the “Candida albicans loads in kidney, lung and bone marrow” value [1]?
Answer: high loads

Question: And the MFC (Candida albicans; Candida albicans)?
Answer: 1000 µg/mL

Question: And the MFC (Candida albicans; Example 1, highly resistant strain, exponential growth phase, substance alone)?
Answer: 1000 µg/mL

Question: And the MFC (Candida albicans; Example 1, moderately resistant strain, exponential growth phase, substance alone)?
Answer: 1000 µg/mL

Question: What about the MFC (Candida albicans; Example 2, resistant strain, carvacrol alone) of the same molecule?
Answer: 1000 µg/mL

Question: And the MFC (Candida albicans; Example 2, susceptible strain, carvacrol alone)?
Answer: 1000 µg/mL

Question: What about the MFC (Candida albicans; Example 3, resistant strain, carvacrol alone) of the same molecule?
Answer: 1000 µg/mL

Question: What about the MFC (Candida albicans; Example 3, susceptible strain, carvacrol alone) of the same molecule?
Answer: 1000 µg/mL

Question: What about the MFC (Aspergillus niger; Aspergillus niger) of the same molecule?
Answer: 500 µg/mL
